Legend:
[1] = target: phosphorylated FGFR3 (SEQ ID NO: 5, amino acids 449 to 759) (Homo sapiens (Human), UniProt P22607); experiment: FGFR enzyme binding assay (HTRF tracer displacement), FGFR3; details: 5 nM phosphorylated FGFR3, average of multiple determinations if made
In short: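 Compounds were tested for displacement of a tracer from human FGFR kinase in a time-resolved FRET binding format. After 60 minutes at 22° C, signal was read at two wavelengths and converted to percent of control, normalised between untreated wells and 1 μM reference inhibitor.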

[2] = target: FGFR3 (SEQ ID NO: 5, amino acids 449-759) (Homo sapiens (Human), UniProt P22607); experiment: LC/MS FGFR3 kobs assay (covalent protein modification); type: binding; details: 500 nM FGFR3, 3 μM compound
In short: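 Intact-mass LC/MS tracks covalent labeling of the kinase domain over time after acid quench (0.4% formic acid). Unmodified fraction, scaled to DMSO controls, is fitted as exponential decay; kobs is reported, averaged when measured more than once.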

[3] = target: HEK-293 cells transfected with dox-inducible human wild type FGFR3 (Homo sapiens (Human), UniProt P22607); experiment: FGFR3 pFGFR cell assay (ELISA); type: cell-based; details: HEK-293 dox-inducible FGFR3, 1 hour compound, 100 ng/ml FGF-acidic
In short: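 Doxycycline-induced (1 μg/ml) HEK-293 cells expressing wild-type human FGFR3, treated 1 h with compound (1:3 series, top final 5 μM), then stimulated 5 min with 100 ng/ml FGF-acidic. Phospho-FGFR3 measured by ELISA (total FGFR3 capture, phosphotyrosine detection, OD 450 nm); IC50 from 4-parameter fit of POC values.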

HEK-293 cells transfected with dox-inducible human wild type FGFR3, sequence (P22607 23-806): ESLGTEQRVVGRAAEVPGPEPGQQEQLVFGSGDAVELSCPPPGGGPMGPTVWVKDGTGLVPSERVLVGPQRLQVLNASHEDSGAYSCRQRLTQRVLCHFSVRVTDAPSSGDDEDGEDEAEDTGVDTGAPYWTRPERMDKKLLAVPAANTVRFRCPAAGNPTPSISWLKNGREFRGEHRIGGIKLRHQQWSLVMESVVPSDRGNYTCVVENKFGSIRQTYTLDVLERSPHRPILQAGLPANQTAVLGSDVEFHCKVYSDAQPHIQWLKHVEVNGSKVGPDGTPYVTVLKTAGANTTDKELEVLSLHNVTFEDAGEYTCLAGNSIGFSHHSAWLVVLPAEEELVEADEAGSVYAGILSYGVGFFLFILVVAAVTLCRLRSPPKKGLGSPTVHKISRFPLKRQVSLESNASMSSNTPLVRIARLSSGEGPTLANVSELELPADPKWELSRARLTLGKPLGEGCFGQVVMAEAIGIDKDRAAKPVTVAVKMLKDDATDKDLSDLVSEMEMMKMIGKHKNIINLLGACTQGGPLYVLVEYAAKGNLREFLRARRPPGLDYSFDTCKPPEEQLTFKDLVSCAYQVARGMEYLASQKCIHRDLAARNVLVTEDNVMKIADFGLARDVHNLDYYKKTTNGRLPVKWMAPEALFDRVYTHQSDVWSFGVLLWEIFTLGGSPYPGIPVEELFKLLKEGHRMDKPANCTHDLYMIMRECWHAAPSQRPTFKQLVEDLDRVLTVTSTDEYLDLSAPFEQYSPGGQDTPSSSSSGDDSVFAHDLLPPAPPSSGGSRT
FGFR3 (SEQ ID NO: 5, amino acids 449-759), sequence (P22607 449-759): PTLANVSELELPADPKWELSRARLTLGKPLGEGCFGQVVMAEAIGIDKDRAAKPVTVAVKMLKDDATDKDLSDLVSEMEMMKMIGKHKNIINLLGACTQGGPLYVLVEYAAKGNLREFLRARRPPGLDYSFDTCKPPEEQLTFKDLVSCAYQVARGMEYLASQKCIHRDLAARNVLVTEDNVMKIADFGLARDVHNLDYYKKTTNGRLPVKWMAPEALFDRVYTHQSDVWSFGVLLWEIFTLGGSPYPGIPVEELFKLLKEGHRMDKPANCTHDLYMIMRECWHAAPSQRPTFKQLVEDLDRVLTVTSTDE
phosphorylated FGFR3 (SEQ ID NO: 5, amino acids 449 to 759), sequence (P22607 449-759): as above

IC50 [1] [µM]	FGFR3 Enz kobs [2] [min⁻¹]	IC50 [3] [µM]	Compound
0.018	0.02545	0.035	C=CC(=O)Nc1ccc(C(=O)N2CC[C@H](n3cc(-c4cc(OC)c5c(C#N)cnn5c4)cn3)C2)cc1OC [Example 71, (S)-N-(4-(3-(4-(3-cyano-4-methoxypyrazolo[1,5-a]pyridin-6-yl)-1H-pyrazol-1-yl)pyrrolidine-1-carbonyl)-2-methoxyphenyl)acryla72 mide]
0.007	0.00908	0.313	C=CC(=O)N1CC(C(=O)N2CC[C@H](n3cc(-c4cc(OC)c5c(C#N)cnn5c4)cn3)C2)C1 [Example 73, (S)-6-(1-(1-(1-acryloylazetidine-3-carbonyl)pyrrolidin-3-yl)-1H-pyrazol-4-yl)-4-methoxypyrazolo[1,5-a]pyridine-3-carbonitrile]
0.055	0.00317	1.9	C=CC(=O)N1CC[C@H](C(=O)N2CC(n3cc(-c4cc(OC)c5c(C#N)cnn5c4)cn3)C2)C1 [Example 76, (S)-6-(1-(1-(1-acryloylpyrrolidine-3-carbonyl)azetidin-3-yl)-1H-pyrazol-4-yl)-4-methoxypyrazolo[1,5-a]pyridine-3-carbonitrile]
0.008	0.01629	0.536	C=CC(=O)N1CC(C(=O)N2CC(n3cc(-c4cc(OC)c5c(C#N)cnn5c4)cn3)C2)C1 [Example 78, 6-(1-(1-(1-acryloylazetidine-3-carbonyl)azetidin-3-yl)-1H-pyrazol-4-yl)-4-methoxypyrazolo[1,5-a]pyridine-3-carbonitrile]
0.06	0.00615	0.117	C=CC(=O)N1CC(CN2CC(n3cc(-c4cc(OC)c5c(C#N)cnn5c4)cn3)C2)C1 [Example 81, 6-(1-(1-((1-acryloylazetidin-3-yl)methyl)azetidin-3-yl)-1H-pyrazol-4-yl)-4-methoxypyrazolo[1,5-a]pyridine-3-carbonitrile]
0.003	0.02714	0.032	C=CS(=O)(=O)N[C@H]1CC[C@H](C(=O)N2CCC(n3cc(-c4cc(OC)c5c(C#N)cnn5c4)cn3)CC2)C1 [Example 190, N-((1S,3S)-3-(4-(4-(3-cyano-4-methoxypyrazolo[1,5-a]pyridin-6-yl)-1H-pyrazol-1-yl)piperidine-1-carbonyl)cyclopentyl)-ethenesulfonamide]
0.01	0.02236	0.02	C=CS(=O)(=O)N[C@@H]1CC[C@H](C(=O)N2CCC(n3cc(-c4cc(OC)c5c(C#N)cnn5c4)cn3)CC2)C1 [Example 191, N-((1R,3S)-3-(4-(4-(3-cyano-4-methoxypyrazolo[1,5-a]pyridin-6-yl)-1H-pyrazol-1-yl)piperidine-1-carbonyl)cyclopentyl)-ethenesulfonamide]
